# Test results as given in patent publication US20250041367A1, “BACTERIOPHAGES AND USE THEREOF FOR THE TREATMENT OR PREVENTION OF INFECTION CAUSED BY E. COLI” (Purdue Research Foundation, priority 2023, published 2025).
# “Also recorded” adds a separate entry of the source.
# Assays:
# [1] = tested on: host APEC E. coli O6:H31; experiment: Lytic capacity of individual phages in liquid media (OD600); type: cell-based, Escherichia coli; conditions: for concentration of APEC (OD600) versus untreated APEC cultures: 2, 3, and 4 hours post-treatment; for OD600 reading of phage-treated APEC culture: after 1 hour of incubation, MOI 10, 37° C., untreated AHP host OD600=0.497
# Protocol: (§1) Individual APEC strains (100 μL) were inoculated into 15 mL LB media in separate tubes (two tubes per strain) and incubated at 37° C. in a shaking incubator. Once the bacterial cultures reached an OD600 0.18-0.22, the individual bacteriophage types (MOI=10) were added to one tube from the pair of tubes inoculated with their respective host APEC strain. The other tubes of bacterial culture were left untreated and served as negative controls. Bacterial growth was assessed by measuring absorbance (OD600) in all tubes every hour for 4 hours. The experiment was repeated three times.
# (§2) The six APEC strains were individually inoculated into LB broth and incubated at 37° C. until they reached log-phase growth. Phages were added to the log-phase culture of their APEC host at an MOI of 10, and subsequent bacterial concentrations were determined by measuring the absorbance (OD600) of the culture at 1, 2, 3, and 4 hours post-phage application. One flask containing only bacterial culture was included as a negative control. Additional flasks containing both bacterial cultures and antibiotics (specifically, gentamycin sulfate, kanamycin sulfate, nalidixic acid, or chloramphenicol) at their respective minimum inhibitory concentrations (National Antibiotic Resistance Monitoring System (NARMS) 2019, antibiotics tested by NARMS) were included as positive controls. These lytic capacity experiments were conducted in triplicate for each of the phage types and their respective host APEC strains.
# [2] = tested on: E. coli serotype O2:H6 (APEC); experiment: Host range spot assay; type: cell-based, Escherichia coli; conditions: E. coli serotype O2:H6, scale 0-3
# Protocol: (§3) The host range of each bacteriophage type was determined by performing spot assays using each of the ten distinct APEC serotypes mentioned above. Spot assays were performed as known in the art (Barrow et al., 1998, Clinical and Diagnostic Laboratory Immunology, 5 (3), 294-298). 100 μL aliquots of log-phase bacterial cultures were combined with 67.5 μL 1M CaCl2) and 4 mL LB overlay, mixed briefly, and poured over LB agar plates. Once the overlay had solidified, 5 μL aliquots of individual phage types were applied (i.e., spotted) onto the plates, and plates were incubated at 37° C. overnight. Plates were assessed for clearings the following day and the degree of lysis was measured using a four-point scale in which 0 indicated no lysis, 1.0 indicated some lysis, 2.0 indicated moderate lysis, and 3 indicated complete lysis. Spot assays were conducted in triplicate for each phage and APEC strain.
# [3] = tested on: ten APEC strains; experiment: Host range (lytic spectrum) over all ten APEC strains, spot assays; type: cell-based, Escherichia coli; conditions: for number of different APEC strains lysed: of ten APEC strains; for degree of lysis against the APEC strains lysed: over the strains that the phage lyses, scale 0-3
# Protocol: as §3
# [4] = Phage stability in simulated gastric fluid (SGF); type: physicochemical; conditions: for phage concentration, unencapsulated, SGF-exposed: SGF pH 2.5 with pepsin; for phage concentration, unencapsulated, SGF-exposed / phage concentration, unencapsulated, PBS-treated: 41° C.; for phage concentration lower in SGF-exposed than in PBS-exposed samples: 90 minutes of exposure; for phage concentration, unencapsulated, PBS-treated: 1×PBS control
# Protocol: The stability of bacteriophages in gastric environments was tested by exposing both encapsulated and unencapsulated bacteriophages to simulated gastric fluid (SGF; 0.32% pepsin (w/v) in 0.2% NaCl; pH 2.5) and to 1×PBS (Moghtader et al., 2016). In this experiment, unencapsulated phages (0.5 mL, in concentrations ranging from 1×10^9 to 4×10^8 PFU/mL depending on the phage type) were added to 4.5 mL of either SGF or PBS (5 replicates per treatment) and incubated at 41° C. This temperature was chosen as it is a typical internal temperature for chickens. Encapsulated phages (0.5 g, in concentrations ranging from 2×10^9 to 2×10^8 PFU/mL depending on the phage type) were also added to 4.5 mL of either SGF or PBS (5 replicates per treatment) and incubated at 41° C. Aliquots (100 μL) were collected from each unencapsulated phage sample after 5, 15, 30, 60, and 90 minutes of exposure to SGF or PBS. These aliquots were serially diluted, and phage concentrations were measured by standard plaque assay. At 15, 30, 60, and 90 minutes post-SGF or PBS exposure, microencapsulated phages were washed with SM buffer to remove residual SGF or PBS and then dissolved in a dissolving solution. Aliquots of the dissolved microcapsules were serially diluted and phage concentrations were measured by standard plaque assay. This experiment was conducted in triplicate for each phage type. Samples containing SGF and unencapsulated bacteriophages were serially diluted without washing and phage concentrations were measured by standard plaque assay as described above. Concentrations of viable phages after exposure to SGF or PBS for a given length of time were then compared.
# [5] = tested on: E. coli serotype O5 (APEC); experiment: Host range spot assay; type: cell-based, Escherichia coli; set-up: key: — indicates no lysis at all; 0.1-1.0 indicates that the phage is semi-lytic; 1.1-2.0 indicates moderate lysis of bacteria; 2.1-3.0 indicates complete lysis of bacteria and formation of a transparent, circular clearing on the bacterial lawn; conditions: E. coli serotype O5, scale 0-3
# Protocol: as §3
# [6] = tested on: host APEC E. coli O2:H4; experiment: Lytic capacity of individual phages in liquid media (OD600); type: cell-based, Escherichia coli; conditions: for OD600 reading of phage-treated APEC culture: after 1 hour of incubation, MOI 10, 37° C., untreated host OD600=0.454
# Protocol: as §1, §2
# [7] = Phage stability in simulated intestinal fluid (SIF); type: physicochemical; conditions: unencapsulated phage, SIF pH 7, 41° C., 1, 2, and 3 hours
# Protocol: To assess phage stability in intestinal fluids, 0.5 mL of unencapsulated phages were added to 4.5 mL of simulated intestinal fluid (SIF; 0.1% (w/v) bile salt and 0.4% (w/v) pancreatin in 50 mM KH2PO4; pH 7) and incubated at 41° C. As a negative control, 0.5 mL of unencapsulated phages were added to 4.5 mL of 1×PBS and incubated at 41° C. Aliquots (100 μL) were collected from each sample after 1, 2, and 3 hours of exposure to SIF. These aliquots were serially diluted and phage concentrations were measured by standard plaque assay as described above. The experiment was conducted in triplicate for each phage type. Concentrations of viable phages after exposure to SIF or PBS at a given time point were then compared.
# [8] = 1, 2, 3, and 4 hours post-treatment, MOI 10, P<0.05
Substance,"concentration of APEC (OD600) versus untreated APEC cultures ([1]; MOI 10, P<0.05)",OD600 reading of phage-treated APEC culture [1],degree of lysis [2],number of different APEC strains lysed [3],"phage concentration, encapsulated, PBS-exposed ([4]; encapsulated phage, 60 minutes) [log10 PFU/mL]","phage concentration, encapsulated, PBS-exposed ([4]; encapsulated phage, 90 minutes) [log10 PFU/mL]","phage concentration, encapsulated, SGF-exposed ([4]; encapsulated phage, 60 minutes) [log10 PFU/mL]","phage concentration, encapsulated, SGF-exposed ([4]; encapsulated phage, 90 minutes) [log10 PFU/mL]","phage concentration, unencapsulated, SGF-exposed ([4]; unencapsulated phage)",degree of lysis [5],"concentration of APEC host versus APEC cultures incubated without phages [1, 8]",degree of lysis against the APEC strains lysed [3],phage concentration lower in SGF-exposed than in PBS-exposed samples ([4]; unencapsulated phage) [log10 PFU/mL],"phage concentration SGF-exposed versus PBS-exposed ([4]; unencapsulated phage, after 5 and 15 minutes of exposure, P>0.05)","phage concentration SGF-exposed versus PBS-exposed ([4]; unencapsulated phage, after 30, 60, and 90 minutes of exposure, P<0.05)",OD600 reading of phage-treated APEC culture [6],phage concentration SIF-exposed versus PBS-exposed [7],phage concentration lower in SGF-exposed than in PBS-exposed samples ([4]; encapsulated phage) [log10 PFU/mL],"phage concentration, unencapsulated, PBS-treated ([4]; unencapsulated phage) [log10 PFU/mL]","concentration of APEC host versus APEC cultures incubated without phages [6, 8]"
Escherichia phage vB_Eco_AHC,Significantly lower,did not significantly differ,2.0,six and at least two,8.31,8.23,8.13,7.15,could not be detected; also recorded: not detectable,1.7,,,,,,,,,,
Escherichia phage vB_Eco_AHP,,0.284,2.7,four and at least two,9.23,9.19,9.21,8.12,,—,significantly lower,2.7-3.0,2.35,No significant differences,significantly lower,,,,,
Escherichia phage vB_Eco_AKA,Significantly lower,did not significantly differ,1.7,six and at least two,8.27,8.22,8.17,7.3,could not be detected; also recorded: not detectable,1.7,,,,,,,,,,
Escherichia phage vB_Eco_MIA,Significantly lower,did not significantly differ,2.3,six and at least two,8.27,8.27,8.14,7.34,could not be detected; also recorded: not detectable,1.7,,,,,,,,,,
Escherichia phage vB_Eco_MP_1 [MP1],,,2.7,two and at least two,9.23,9.19,9.09,8.11,8.71 log10 PFU/mL,—,,2.7,3.9,,,0.101,significantly lower,0.97,9.27,
Escherichia phage vB_Eco_MP_2 [MP2],,,3.0,two and at least two,9.15,9.07,9.11,8.41,7.72 log10 PFU/mL,—,,3.0,4.5,,,0.328,,0.74,9.05,significantly lower
